These results are taken from patent US9475817B2 (BRISTOL-MYERS SQUIBB COMPANY, priority 2012, dated 2016).

Usually IC50 stands for the concentration that gives 50% inhibition.

For assay [1], the target named is CK1ε (Homo sapiens (Human), UniProt P49674). Briefly: CK1ε kinase assay (Caliper LabChip, fluoresceinated peptide substrate). The note with it: 200 pM CK1ε, 50 μM ATP, 1.5 μM peptide substrate, 22 hours room temperature. Type of assay: biochemical. How it is done:
(§1) CK1ε and CK1δ Kinase Assays
(§2) The kinase assay was performed in V-bottom 384-well plates. […] The reaction was incubated at room temperature for 22 hours and terminated by adding 45 μl of 35 mM EDTA to each sample. […] Compounds were dissolved at 10 mM in dimethylsulfoxide (DMSO) and evaluated at eleven concentrations. IC50 values were derived by non-linear regression analysis.

The target of assay [2] is CK1δ (Homo sapiens (Human), UniProt P48730). Kind of assay: CK1δ kinase assay (Caliper LabChip, fluoresceinated peptide substrate). The note with it: 200 pM CK1δ, 50 μM ATP, 1.5 μM peptide substrate, 22 hours room temperature. The assay is classed as biochemical. How it is done: as §1, §2
Sequence of CK1δ (P48730 whole entry): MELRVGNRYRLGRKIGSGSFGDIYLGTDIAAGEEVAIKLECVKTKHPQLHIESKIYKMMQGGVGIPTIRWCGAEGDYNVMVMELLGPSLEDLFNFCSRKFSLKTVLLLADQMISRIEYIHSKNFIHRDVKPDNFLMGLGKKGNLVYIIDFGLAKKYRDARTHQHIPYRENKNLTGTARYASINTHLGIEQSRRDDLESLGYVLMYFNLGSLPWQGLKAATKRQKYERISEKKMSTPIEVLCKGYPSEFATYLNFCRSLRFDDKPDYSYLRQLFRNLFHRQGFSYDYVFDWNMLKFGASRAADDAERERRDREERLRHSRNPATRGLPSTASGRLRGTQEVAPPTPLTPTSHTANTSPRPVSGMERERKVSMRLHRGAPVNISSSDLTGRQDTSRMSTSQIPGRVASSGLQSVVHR

Sequence of CK1ε (P49674 whole entry): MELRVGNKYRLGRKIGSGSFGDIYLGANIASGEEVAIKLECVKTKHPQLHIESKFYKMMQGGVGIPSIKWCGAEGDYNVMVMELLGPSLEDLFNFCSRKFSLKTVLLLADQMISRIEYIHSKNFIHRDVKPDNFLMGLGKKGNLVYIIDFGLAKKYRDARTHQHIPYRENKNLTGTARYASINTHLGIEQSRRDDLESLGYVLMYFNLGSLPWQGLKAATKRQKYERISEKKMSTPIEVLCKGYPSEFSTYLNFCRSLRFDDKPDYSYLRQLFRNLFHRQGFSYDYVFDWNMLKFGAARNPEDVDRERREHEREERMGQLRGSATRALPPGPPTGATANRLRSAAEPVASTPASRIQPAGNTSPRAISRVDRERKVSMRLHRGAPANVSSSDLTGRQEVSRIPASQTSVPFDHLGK

In the case of `Cn1nc(-c2ccc(F)cc2)c(-c2ccc3nc(NC(=O)c4ccnc(N5CCOCC5)c4)cn3n2)c1C1CCN(CC(N)=O)CC1` [Compound 163, N-(6-(5-(1-(2-Amino-2-oxoethyl)piperidin-4-yl)-3-(4-fluorophenyl)-1-methyl-1H-pyrazol-4-yl)imidazo[1,2-b]pyridazin-2-yl)-2-morpholinoisonicotinamide], the IC50 is 0.6 nM in assay [1] and 0.4 nM in assay [2].
On the same counts, the results for `Cn1cc(-c2ccc3nc(NC(=O)c4cc(Cl)nc5ccccc45)cn3n2)c(-c2ccc(F)cc2)n1` [Compound 2, 2-chloro-N-(6-(3-(4-fluorophenyl)-1-methyl-1H-pyrazol-4-yl)imidazo[1,2-b]pyridazin-2-yl)quinoline-4-carboxamide] are 19.2 nM and 1.3 nM.
On the same counts, the results for `Cn1cc(-c2ccc3nc(NC(=O)c4ccc(C#N)c(F)c4)cn3n2)c(-c2ccc(F)cc2)n1` [Compound 48, 4-cyano-3-fluoro-N-(6-(3-(4-fluorophenyl)-1-methyl-1H-pyrazol-4-yl)imidazo[1,2-b]pyridazin-2-yl)benzamide] are 23.4 nM and 5.7 nM.
On the same counts, the results for `Cn1cc(-c2ccc3nc(NC(=O)c4nccs4)cn3n2)c(-c2ccc(F)cc2)n1` [Compound 37, N-(6-(3-(4-fluorophenyl)-1-methyl-1H-pyrazol-4-yl)imidazo[1,2-b]pyridazin-2-yl)thiazole-2-carboxamide] are 116 nM and 30.5 nM.
Consider `Cn1nc(-c2ccc(F)cc2)c(-c2ccc3nc(NC(=O)c4ccnc(N)c4)cn3n2)c1N1CCN(CCC(F)(F)F)CC1` [Compound 141, 2-Amino-N-(6-(3-(4-fluorophenyl)-1-methyl-5-(4-(3,3,3-trifluoropropyl)piperazin-1-yl)-1H-pyrazol-4-yl)imidazo[1,2-b]pyridazin-2-yl)isonicotinamide], for which the values for the 50% inhibitory concentration (IC50) in assay [1] and in assay [2] were 32 nM and 2.5 nM, respectively.
On the same counts, the results for `COc1cccc(C(=O)Nc2cn3nc(-c4cn(C)nc4-c4ccc(F)cc4)ccc3n2)c1F` [Compound 59, 2-fluoro-N-(6-(3-(4-fluorophenyl)-1-methyl-1H-pyrazol-4-yl)imidazo[1,2-b]pyridazin-2-yl)-3-methoxybenzamide] are 22.1 nM and 7.8 nM.
As for `Cn1cc(-c2ccc3nc(NC(=O)Nc4ccccc4)cn3n2)c(-c2ccc(F)cc2)n1` [Compound 186, 1-(6-(3-(4-Fluorophenyl)-1-methyl-1H-pyrazol-4-yl)imidazo[1,2-b]pyridazin-2-yl)-3-phenylurea], the values for the IC50 in assay [1] and in assay [2] were 114 nM and 14.6 nM, respectively.
For the compound `Cn1nc(-c2ccc(F)cc2)c(-c2ccc3nc(NC(=O)c4ccnc(N5CCOCC5)c4)cn3n2)c1-c1ccncc1` [Compound 203, N-(6-(3-(4-Fluorophenyl)-1-methyl-5-(pyridin-4-yl)-1H-pyrazol-4-yl)imidazo[1,2-b]pyridazin-2-yl)-2-morpholinoisonicotinamide], the IC50 in assay [1] worked out at 7.9 nM; in assay [2], 0.9 nM.
On the same counts, the results for `Cn1nc(-c2ccc(F)cc2)c(-c2ccc3nc(NC(=O)c4ccncc4)cn3n2)c1C1CCN(CCO)CC1` [Compound 168, N-(6-(3-(4-fluorophenyl)-5-(1-(2-hydroxyethyl)piperidin-4-yl)-1-methyl-1H-pyrazol-4-yl)imidazo[1,2-b]pyridazin-2-yl)isonicotinamide] are 1.5 nM and 1.3 nM.
On the same counts, the results for `Cn1nc(-c2ccc(F)cc2)c(-c2ccc3nc(NC(=O)c4ccnc(F)c4)cn3n2)c1C1CCN(C(=O)c2cncs2)CC1` [Compound 154, 2-fluoro-N-(6-(3-(4-fluorophenyl)-1-methyl-5-(1-(thiazole-5-carbonyl)piperidin-4-yl)-1H-pyrazol-4-yl)imidazo[1,2-b]pyridazin-2-yl)isonicotinamide] are 0.3 nM and 0.3 nM.
On the same counts, the results for `Cn1cc(-c2ccc3nc(NC(=O)c4ccnnc4)cn3n2)c(-c2ccc(F)cc2)n1` [Compound 25, N-(6-(3-(4-fluorophenyl)-1-methyl-1H-pyrazol-4-yl)imidazo[1,2-b]pyridazin-2-yl)pyridazine-4-carboxamide] are 14.5 nM and 7.4 nM.
Take `Cn1cc(-c2ccc3nc(NC(=O)c4ccc(F)cc4)cn3n2)c(-c2ccc(F)cc2)n1` [Compound 62, 4-fluoro-N-(6-(3-(4-fluorophenyl)-1-methyl-1H-pyrazol-4-yl)imidazo[1,2-b]pyridazin-2-yl)benzamide]: the IC50 worked out at 28.1 nM in assay [1] and 7.2 nM in assay [2].
On the same counts, the results for `Cn1cc(-c2ccc3nc(NC(=O)c4cnccc4C(F)(F)F)cn3n2)c(-c2ccc(F)cc2)n1` [Compound 63, N-(6-(3-(4-fluorophenyl)-1-methyl-1H-pyrazol-4-yl)imidazo[1,2-b]pyridazin-2-yl)-4-(trifluoromethyl) nicotinamide] are 34.8 nM and 8 nM.
On the same counts, the results for `Cn1cc(-c2ccc3nc(NC(=O)c4ccc(Cl)cc4F)cn3n2)c(-c2ccc(F)cc2)n1` [Compound 24, 4-chloro-2-fluoro-N-(6-(3-(4-fluorophenyl)-1-methyl-1H-pyrazol-4-yl)imidazo[1,2-b]pyridazin-2-yl)benzamide] are 16.2 nM and 6.3 nM.
For `O=C(Nc1cn2nc(-c3cn(C4CC4)nc3-c3ccc(F)cc3)ccc2n1)c1csc(-c2ccncc2)n1` [Compound 103, N-(6-(1-Cyclopropyl-3-(4-fluorophenyl)-1H-pyrazol-4-yl)imidazo[1,2-b]pyridazin-2-yl)-2-(pyridin-4-yl)thiazole-4-carboxamide], the concentration for half-maximal inhibition (IC50) in assay [1] was 74.9 nM; in assay [2], 8.5 nM.
On the same counts, the results for `Cn1cc(-c2ccc3nc(NC(=O)c4ccccc4)c(F)n3n2)c(-c2ccc(F)cc2)n1` [Compound 192, N-(3-Fluoro-6-(3-(4-fluorophenyl)-1-methyl-1H-pyrazol-4-yl)imidazo[1,2-b]pyridazin-2-yl)benzamide] are 23.3 nM and 5.6 nM.
On the same counts, the results for `Cn1cc(-c2ccc3nc(NC(=O)CC(F)(F)F)cn3n2)c(-c2ccc(F)cc2)n1` [Compound 99, 3,3,3-trifluoro-N-(6-(3-(4-fluorophenyl)-1-methyl-1H-pyrazol-4-yl)imidazo[1,2-b]pyridazin-2-yl)propanamide] are 47.3 nM and 10.3 nM.
On the same counts, the results for `Cn1cc(-c2ccc3nc(NC(=O)c4ccccc4)c(Br)n3n2)c(-c2ccc(F)cc2)n1` [Compound 189, N-(3-Bromo-6-(3-(4-fluorophenyl)-1-methyl-1H-pyrazol-4-yl)imidazo[1,2-b]pyridazin-2-yl)benzamide] are 257 nM and 38.8 nM.
`Cc1nc(-c2ccncc2)sc1C(=O)Nc1cn2nc(-c3c(-c4ccc(F)cc4)nn(C)c3C3CCN(CCC(F)(F)F)CC3)ccc2n1` [Compound 181, N-(6-(3-(4-fluorophenyl)-1-methyl-5-(1-(3,3,3-trifluoropropyl)piperidin-4-yl)-1H-pyrazol-4-yl)imidazo[1,2-b]pyridazin-2-yl)-4-methyl-2-(pyridin-4-yl)thiazole-5-carboxamide]: the IC50 in assay [1] worked out at 14.3 nM; in assay [2], 1.1 nM.
